According to paper PMC10622836, “Crystal structure of histone deacetylase 6 complexed with (R)-lipoic acid, an essential cofactor in central carbon metabolism” (The Journal of Biological Chemistry, 2023):

Target: T1, HDAC6 (histone deacetylase 6) (Danio rerio, UniProt F8W4B7)
T1 construct: catalytic domain 2
T1 sequence (F8W4B7 440-798 limits assumed): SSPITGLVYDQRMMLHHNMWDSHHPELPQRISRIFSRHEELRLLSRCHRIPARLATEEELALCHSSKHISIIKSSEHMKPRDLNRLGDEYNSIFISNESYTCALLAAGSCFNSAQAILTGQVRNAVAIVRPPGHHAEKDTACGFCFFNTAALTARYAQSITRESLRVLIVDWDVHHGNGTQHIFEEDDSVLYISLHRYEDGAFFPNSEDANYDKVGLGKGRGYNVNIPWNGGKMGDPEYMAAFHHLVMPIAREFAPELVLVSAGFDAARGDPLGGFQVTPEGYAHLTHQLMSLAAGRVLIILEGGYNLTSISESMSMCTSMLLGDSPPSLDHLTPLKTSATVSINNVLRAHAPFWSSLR
Experiment: X-ray crystal structure ([…] Å) and ITC
Assay type: binding

## O=C(O)CCCC[C@@H](S)CCS [(R)-dihydrolipoic acid]
  Kd: 350 nM
